In US11866460B2 (priority 2015, dated 2024):
Like-named read-outs stand apart in the source and are kept apart here. Where a SMILES comes first, the peptide text is derived from it. Where no end group is shown, it is not given here.

Tests used:
[1] = system: CHIKV 181/25; experiment: microbe, parasite or virus in culture; conditions: Chikungunya virus, Vero
[2] = system: DENV-3 H87; conditions: for Therapeutic Index (CC50/EC50): -3 H87
[3] = system: DENV-2 New Guinea C
[4] = system: CHIKV 181/25; conditions: for EC50: 0 h
[5] = system: YFV 17D
[6] = system: DENV-4 H241; conditions: for Therapeutic Index (CC50/EC50): -4 H241
[7] = system: DENV-1 PRS41393; conditions: for Therapeutic Index (CC50/EC50): -1 PRS41393
[8] = system: JEV 14-14-2; conditions: for EC50: 0 h
[9] = system: human erythrocyte cells
[10] = in vitro; conditions: African green monkey
[11] = system: panel of enveloped viruses (DENV, JEV, YFV, CHIKV and others)
[12] = system: Ebola virus (EBOV)
[13] = system: Marburg virus (MARV)
[14] = system: S. aureus (ATCC 25923); conditions: for MIC in PB: 10 mM potassium phosphate buffer, pH 7.2; for MIC in PBS: phosphate-buffered saline
[15] = system: Vero cells; conditions: African green monkey
[16] = system: VEEV TC-83; conditions: 0 h
[17] = read-out: EC50 Values for the Indicated Virus

Molecule	Therapeutic Index (CC50/EC50) [2]	Therapeutic Index (CC50/EC50) ([3]; -2 New Guinea C)	Therapeutic Index (CC50/EC50) [4]	Therapeutic Index (CC50/EC50) [5]	Therapeutic Index (CC50/EC50) [6]	Therapeutic Index (CC50/EC50) [7]	Therapeutic Index (CC50/EC50) [8]	MHC [9]	CC50 [10]	MIC in PB [14]	MIC in PBS [14]	other results
O=c1cnn([C@@H]2O[C@H](CO)[C@@H](O)[C@H]2O)c(=O)[nH]1 [6-azauridine]	–	–	–	–	–	–	–	–	–	–	–	EC50 [1]: 0.29 µM
CC[C@H](C)[C@H](NC(=O)[C@H](Cc1c[nH]c2ccccc12)NC(=O)[C@H](CC(=O)O)NC(=O)[C@H](Cc1c[nH]c2ccccc12)NC(=O)[C@@H](NC(=O)[C@H](CC(=O)O)NC(=O)[C@H](CCCNC(=N)N)NC(=O)[C@H](CC(C)C)NC(=O)[C@H](Cc1c[nH]c2ccccc12)NC(=O)[C@H](CO)NC(=O)CNC(=O)[C@@H](N)CO)C(C)C)C(=O)N[C@@H](CS)C(=O)N[C@H](C(=O)N[C@H](C(=O)N[C@@H](CC(C)C)C(=O)N[C@H](C(=O)N[C@@H](CC(=O)O)C(=O)N[C@@H](Cc1ccccc1)C(=O)N[C@@H](CCCCN)C(=O)N[C@H](C(=O)N[C@@H](Cc1c[nH]c2ccccc12)C(=O)N[C@@H](CC(C)C)C(=O)N[C@@H](CCC(N)=O)C(=O)N[C@@H](CO)C(=O)N[C@@H](CCCCN)C(=O)N[C@@H](CC(C)C)C(=O)O)[C@@H](C)O)[C@@H](C)O)C(C)C)[C@@H](C)O [AH, reference compound]	17.65	708.11	21.21	5.87	36.84	49.98	236.04	50 µM	192 µM	–	–	EC50 [10]: 127 µM
Nc1ccn(C[C@@H](CO)OCP(=O)(O)O)c(=O)n1 [Cidofovir]	–	–	–	–	–	–	–	–	> 375 µM	–	–	–
CC(C)C[C@H](NC(=O)[C@H](CCCCN)NC(=O)[C@H](CO)NC(=O)[C@H](CCC(N)=O)NC(=O)[C@H](CC(C)C)NC(=O)[C@H](Cc1c[nH]c2ccccc12)NC(=O)[C@@H](NC(=O)[C@H](Cc1c[nH]c2ccccc12)NC(=O)[C@@H](NC(=O)[C@H](CC(=O)O)NC(=O)[C@H](CCCNC(=N)N)NC(=O)[C@H](CC(C)C)NC(=O)[C@H](Cc1c[nH]c2ccccc12)NC(=O)[C@H](CO)NC(=O)CNC(=O)[C@H](CO)NC(=O)CCOCCOCCOCCOCCOCCOCCOCCOCCOCCOCCOCCOCCNC(=O)CCOCCOCCOCCOCCOCCOCCOCCOCCOCCOCCOCCOCCN)C(C)C)[C@@H](C)O)C(N)=O [TSGX1X] (HELM PEPTIDE1{[NCCOCCOCCOCCOCCOCCOCCOCCOCCOCCOCCOCCOCCC(=O)[*:2]].[O=C(CCOCCOCCOCCOCCOCCOCCOCCOCCOCCOCCOCCOCCN[*:1])[*:2]].S.G.S.W.L.R.D.V.W.T.W.L.Q.S.K.L.[am]}$$$$V2.0)	–	–	–	–	–	–	–	–	–	–	–	antiviral activities of pegylated peptides [11]: reduced; antiviral activity of pegylated peptides [11]: preserve strong antiviral activity; efficacy against infection [11]: effective; EC50 [2]: 2.28 µM; EC50 [3]: 3.86 µM; EC50 [4]: 27.2 µM; EC50 [5]: 22.4 µM; EC50 [6]: 3.54 µM; EC50 [7]: 4.98 µM; EC50 [8]: 1.27 µM; EC50 [12]: 13.5 µM; EC50 [12, 17]: 13.5 µM; EC50 [13]: 14.3 µM; EC50 [13, 17]: 14.3 µM
CC(C)C[C@H](NC(=O)[C@H](CCCCN)NC(=O)[C@H](CO)NC(=O)[C@H](CCC(N)=O)NC(=O)[C@H](CC(C)C)NC(=O)[C@H](Cc1c[nH]c2ccccc12)NC(=O)[C@@H](NC(=O)[C@H](Cc1c[nH]c2ccccc12)NC(=O)[C@@H](NC(=O)[C@H](CC(=O)O)NC(=O)[C@H](CCCNC(=N)N)NC(=O)[C@H](CC(C)C)NC(=O)[C@H](Cc1c[nH]c2ccccc12)NC(=O)[C@H](CO)NC(=O)[C@H](CO)NC(=O)CNC(=O)CCOCCOCCOCCOCCOCCOCCOCCOCCOCCOCCOCCOCCNC(=O)CCOCCOCCOCCOCCOCCOCCOCCOCCOCCOCCOCCOCCN)C(C)C)[C@@H](C)O)C(N)=O [TSGX2X] (HELM PEPTIDE1{[NCCOCCOCCOCCOCCOCCOCCOCCOCCOCCOCCOCCOCCC(=O)[*:2]].[O=C(CCOCCOCCOCCOCCOCCOCCOCCOCCOCCOCCOCCOCCN[*:1])[*:2]].G.S.S.W.L.R.D.V.W.T.W.L.Q.S.K.L.[am]}$$$$V2.0)	–	–	–	–	–	–	–	–	–	–	–	antiviral activities of pegylated peptides [11]: reduced; antiviral activity of pegylated peptides [11]: preserve strong antiviral activity; efficacy against infection [11]: effective; EC50 [12]: 29.9 µM; EC50 [12, 17]: 29.9 µM; EC50 [13]: 44.3 µM; EC50 [13, 17]: 44.3 µM
AGSWLRDILTLLQSAL [TSG009]	–	–	–	–	–	–	–	1.5 µM	–	1.5 µM	1.5 µM	–
AGSWLRDIWTWLQSAL [TSG008]	–	–	–	–	–	–	–	1.5 µM	–	1.5 µM	1.5 µM	–
GSSWLRDILTALQSLL [TSG007]	–	–	–	–	–	–	–	1.5 µM	–	1.5 µM	1.5 µM	–
GSSWLRDIWTALQSWL [TSG006]	11.71	26.04	5.07	22.09	11.63	12.03	10.71	3 µM	14.9 µM	1.5 µM	1.5 µM	EC50 ([2]; -3 H87, 0 h): 1.63 µM; EC50 ([6]; -4 H241, 0 h): 2.11 µM; EC50 ([7]; -1 PRS41393, 0 h): 1.56 µM
GSSWLRDIWTKLQSWL [TSG005]	–	–	–	–	–	–	–	13 µM	–	1.5 µM	1.5 µM	–
GSSWLRDVWTKLQSWL [TSG004]	18.64	18.29	14.89	14.33	15.88	13.45	24.46	50 µM	111 µM	1.5 µM	1.5 µM	CC50 [15]: 114 µM; EC50 ([3]; -2 New Guinea C, 0 h): 8.63 µM; EC50 [4]: 9.52 µM; EC50 ([6]; -4 H241, 0 h): 6.5 µM; EC50 [16]: > 50 µM; EC50 ([7]; -1 PRS41393, 0 h): 6.24 µM
GSSWLRDVWTWLQSAL [TSG003]	22.33	22.33	17.72	18.05	20.23	11.46	–	50 µM	24.5 µM	1.5 µM	1.5 µM	CC50 [15]: 38.6 µM; EC50 [16]: > 12.5 µM; EC50 ([7]; -1 PRS41393, 0 h): 6.12 µM; EC50 [8]: 16.3 µM
GSSWLRDVWTWLQSKL [TSG002]	6.09	9.60	4.73	7.40	8.58	10.41	6.72	50 µM	–	1.5 µM	1.5 µM	EC50 ([2]; -3 H87, 0 h): 5.09 µM; CC50 [15]: 16.1 µM; EC50 ([3]; -2 New Guinea C, 0 h): 2.74 µM; EC50 [4]: 3.21 µM; EC50 [16]: > 12.5 µM; EC50 [12]: 1.01 µM; EC50 [13]: 0.922 µM
SGSWLRDVWTWLQSKL [TSG001 L-isomer]	–	–	–	–	–	–	–	–	–	–	–	CC50 [15]: > 20 µM
SWLRDIWDWICEVLSDFK [C5A, reference compound]	15.02	85.26	9.38	99.97	22.13	44.60	61.68	13 µM	–	–	>100 µM	EC50 ([2]; -3 H87, 0 h): 3.86 µM; EC50 ([6]; -4 H241, 0 h): 1.65 µM; EC50 [10]: 29 µM
